# Measurements as given in patent US6362369B1, “Phthalic acid diamide derivatives fluorine-containing aniline compounds as starting material, agricultural and horticultural insecticides, and a method for application of the insecticides” (Nihon Nohyaku Co., Ltd., priority 1997, dated 2002).
# Key:
# Assay type in all cases: in vivo
# [1] = tested on: rice leafroller (Cnaphalocrocis medinalis); assay: Insecticidal effect on rice leafroller (Test Example 3); settings: 500 ppm, 25° C., humidity 70%; for Insecticidal effect, Test Example 3: rice lamina immersed; for Insecticidal effect, Test Example 3 / Insecticidal effect on rice leafroller (Test Example 3), judged grade: four days after inoculation; for Insecticidal effect on rice leafroller (Test Example 3), judged grade / Insecticidal effect (Test Example 3), judged from mortality: rice lamina dip; for Insecticidal effect on rice leafroller (Test Example 3), judged grade: third-instar larvae; for Insecticidal effect (Test Example 3), judged from mortality: 4 days after inoculation
# Procedure, shortened: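 Insecticidal effect is judged by a predefined criterion from dead/alive counts four days after infesting air-dried lamina with third-instar larvae, kept on moistened filter paper at 25° C, 70% humidity.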
# [2] = tested on: diamondback moth (Plutella xylostella); assay: Insecticidal effect on diamondback moth (Test Example 1); settings: for Insecticidal effect, Test Example 1 / Insecticidal effect (Test Example 1), judged from mortality: diamondback moth; for Insecticidal effect on diamondback moth (Test Example 1), judged grade: mortality judged according to the criterion shown in Test Example 1; for Insecticidal effect (Test Example 1), judged from mortality: judged by the criterion of Test Example 1
# Procedure, shortened: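 Triplicate groups of 10 insects were scored: six days after immersion of oviposited Chinese cabbage seedlings and holding at 25 °C post air-drying, hatched larvae were counted. Mortality derived from these counts and insecticidal effect judged by a set criterion.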
# [3] = tested on: common cutworm (Spodoptera Litura); assay: Insecticidal effect on common cutworm (Test Example 2); settings: 500 ppm, 25° C.; for Insecticidal effect, Test Example 2: cabbage leaf immersed; for Insecticidal effect, Test Example 2 / Insecticidal effect on common cutworm (Test Example 2), judged grade: eight days after inoculation; for Insecticidal effect on common cutworm (Test Example 2), judged grade / Insecticidal effect (Test Example 2), judged from mortality: cabbage leaf dip; for Insecticidal effect on common cutworm (Test Example 2), judged grade: second-instar larvae; for Insecticidal effect (Test Example 2), judged from mortality: 8 days after inoculation
# Procedure, shortened: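 Mortality is the read-out: larvae are counted as dead or alive on day 8 and the percentage is graded by an effect criterion. Second-instar larvae are kept with the air-dried treated material in a sealed dish at 25° C, in triplicate groups of ten.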
# [4] = third-instar larvae of rice leafroller
# [5] = judged by the mortality criterion of Test Example 1
# [6] = second-instar larvae of common cutworm
# [7] = rice leafroller third-instar larvae
# [8] = mortality judged by criterion of Test Example 1
# [9] = common cutworm second-instar larvae
Structure (SMILES),"Insecticidal effect, Test Example 3 [1, 4]","Insecticidal effect, Test Example 1 [2, 5]","Insecticidal effect, Test Example 2 [3, 6]","Insecticidal effect, Test Example 3 [1, 7]","Insecticidal effect, Test Example 1 [2, 8]","Insecticidal effect, Test Example 2 [3, 9]",also measured
CC(C)NC(=O)c1c(I)cccc1C(=O)Nc1ccc(OC(F)F)c(F)c1 [compound 382],A (100),A (100),B (99-90),,,,
CCN(CC)C(=O)c1c(I)cccc1C(=O)Nc1ccc2c(c1)OC(F)(F)O2 [compound 1129],,,,A (100),A (100),A (100),
Cc1cc(C(F)(F)F)ccc1NC(=O)c1cccc(I)c1C(=O)NC(C)C [compound 371],A (100),A (100),A (100),,,,
Cc1cc(OC(F)F)ccc1NC(=O)c1cccc(I)c1C(=O)NCc1ccccc1 [compound 1430],,,,A (100),A (100),D (79-50),
CC(C)NC(=O)c1cccc(I)c1C(=O)Nc1ccc(C(F)(F)C(F)(F)C(F)(F)F)cc1 [compound 417],A (100),A (100),A (100),,,,
CC(C)NC(=O)c1c(C(=O)Nc2ccc(OC(F)(F)F)cc2Br)cccc1[N+](=O)[O-] [compound 705],,,,,,,"Insecticidal effect on rice leafroller (Test Example 3), judged grade [1]: A (100); Insecticidal effect on diamondback moth (Test Example 1), judged grade [2]: A (100); Insecticidal effect on common cutworm (Test Example 2), judged grade [3]: D (79-50)"
CC(C)NC(=O)c1ccccc1C(=O)Nc1ccc(OC(F)(F)F)cc1Br [compound 48],A (100),A (100),B (99-90),,,,
Cc1cc(OC(F)(F)C(F)(Cl)Cl)ccc1NC(=O)c1c(F)cccc1C(=O)NC(C)C [compound 553],,,,,,,"Insecticidal effect on rice leafroller (Test Example 3), judged grade [1]: A (100); Insecticidal effect on diamondback moth (Test Example 1), judged grade [2]: A (100); Insecticidal effect on common cutworm (Test Example 2), judged grade [3]: C (89-80)"
CC(C)NC(=O)c1c(Cl)cccc1C(=O)Nc1ccc(S(=O)(=O)C(F)(F)F)cc1 [compound 1078],,,,A (100),A (100),A (100),
CC(C)NC(=O)c1c(Cl)cccc1C(=O)Nc1ccc(C(F)(F)C(F)(F)F)cc1C(F)(F)F [compound 1384],,,,A (100),A (100),A (100),
Cc1cc(Sc2ccc(Cl)cc2)ccc1NC(=O)c1cccc(I)c1C(=O)NC(C)C [compound 404],A (100),A (100),A (100),,,,
Cc1cc(OC(F)(F)F)ccc1NC(=O)c1cccc(Br)c1C(=O)NC(C)C [compound 289],A (100),A (100),A (100),,,,
Cc1cc(OC(F)F)ccc1NC(=O)c1cccc(S(C)(=O)=O)c1C(=O)NC(C)C [compound 795],,,,,,,"Insecticidal effect on rice leafroller (Test Example 3), judged grade [1]: A (100); Insecticidal effect on diamondback moth (Test Example 1), judged grade [2]: A (100); Insecticidal effect on common cutworm (Test Example 2), judged grade [3]: B (99-90)"
Cc1cc(OC(F)(F)C(F)OC(F)(F)F)ccc1NC(=O)c1ccccc1C(=O)NC(C)C (stereo not drawn) [compound 67],A (100),A (100),A (100),,,,
Cc1cc(C(F)(F)C(F)(F)F)ccc1NC(=O)c1cccc(I)c1C(=O)NCC(F)(F)F [compound 1040],,,,A (100),A (100),A (100),
CCN(C(=O)c1c(I)cccc1C(=O)Nc1ccc(OC(F)(F)F)cc1)C(C)C [compound 1160],,,,A (100),A (100),A (100),
CCC(C)(C)NC(=O)c1c(I)cccc1C(=O)Nc1ccc(OC(F)(F)F)cc1C [compound 1566],,,,,,,"Insecticidal effect (Test Example 3), judged from mortality [1, 4]: A (100); Insecticidal effect (Test Example 1), judged from mortality [2]: A (100); Insecticidal effect (Test Example 2), judged from mortality [3, 6]: A (100)"
CC(C)(C)NC(=O)c1c(I)cccc1C(=O)Nc1cc2c(cc1Cl)OC(F)(F)O2 [compound 1624],,,,,,,"Insecticidal effect (Test Example 3), judged from mortality [1, 4]: A (100); Insecticidal effect (Test Example 1), judged from mortality [2]: A (100); Insecticidal effect (Test Example 2), judged from mortality [3, 6]: D (79-50)"
